# How the values were obtained:
# K562/P-gp leukemia = assay: In vivo efficacy in reversing DOX resistance in human leukemia K562/P-gp model; design: species or system NOD/SCID mice
# Procedure: Irradiated BDF1 mice were i.p. inoculated with P388ADR cells, which caused mouse leukemia. Irradiated NOD/SCID mice were i.v. inoculated with K562/P-gp cells, which caused human leukemia. The mice were randomized and treated with (1) control treatment (no treatment), (2) DOX alone, and (3) EC31 + DOX. Treatments were given as indicated by the arrows. The number of mice deaths in each treatment group was recorded every day. (A) The percent survival of mice infected with P388ADR. (B) The percent survival of mice infected with K562/P-gp. The mice median survival days and the increased lifespan (ILS) were analyzed with Log-rank (Mantel–COX) test in Prism 5.0. Student’s paired t test was conducted as indicated. ** represents p < 0.01, and *** represents p < 0.001. N.S. = not significant.
# The mice were randomly distributed into 3 groups: (1) control group (no treatment), (2) DOX (0.9 mg/kg i.v.) alone, and (3) cotreatment with EC31 (30 mg/kg i.p.) being injected 1 h prior to DOX (0.9 mg/kg i.v.) administration. EC31 and DOX were injected on days 7, 11, 19, 23, and 27. Before each treatment, 0.2 mg/mL of DOX was freshly prepared using PBS. Mice survival and body weight were monitored during the study period.
# LCC6MDR xenograft = assay: In vivo efficacy in reversing PTX resistance in LCC6MDR tumor xenograft model; settings: for Doubling time: q2d x 14; for reduction in tumor volume compared to PTX alone / reduction in tumor weight compared to PTX alone: day 30
# Procedure: (A) In vivo toxicity study of EC31 alone and of its combination with PTX was conducted. BALB/c mice were randomized into five groups with five mice in each group. Body weight of BALB/c mice during treatments was measured every two days. The treatment groups included (1) solvent control (5% NMP + 5% Cremophor EL + 90% PBS to dissolve EC31 and 5% Ethanol + 5% Cremophor EL + 90% PBS to dissolve PTX), (2) PTX (12 mg/kg i.v.), (3) EC31 (30 mg/kg i.p.), (4) EC31 (30 mg/kg i.p.) + PTX (12 mg/kg i.v.), or (5) EC31 (60 mg/kg i.p.) + PTX (12 mg/kg i.v.). The administration was performed every other day 12 times (q2d x 12). The loss of body weight or appetite and treatment-related mortality were monitored and defined as toxicity. (B) BALB/c nude mice were subcutaneously xenografted with LCC6MDR. When the tumor reached 150–300 mm^3, the mice were randomized and administered once with (1) EC31 alone, (2) PTX alone, or (3) EC31 + PTX. […] The tumors were taken out, and their weights were measured. Intratumor concentration of EC31 or PTX was measured using UPLC-MS/MS, and the actual concentration of PTX or EC31 was normalized to the tumor weight. […] (C) BALB/c nude mice were subcutaneously xenografted with LCC6MDR. The treatment groups included (1) solvent, (2) PTX (12 mg/kg i.v.) alone, (3) cotreatment with EC31 (30 mg/kg i.p.) being injected 1 h prior to PTX (12 mg/kg i.v.) and with EC31 (30 mg/kg i.p.) then being given in a second injection 5 h post-PTX injection, and (4) cotreatment with EC31 (60 mg/kg i.p.) being injected 1 h prior to PTX injection (12 mg/kg i.v.). Tumor volume and body weight were monitored throughout the treatment period. There were 8 mice in each treatment group. Treatments were given as indicated by the arrows. […] At the end of LCC6MDR xenograft efficacy study (day 30), all tumors were dissected. The tumor volume, tumor weight, and doubling time were measured. The number of animal deaths was recorded during the treatment period. Statistical analysis on tumor volumes of different treatment groups was done by performing two-way ANOVA with Dunnett’s multiple comparison test after treatment period. * represents p < 0.05, ** represents p < 0.01, and *** represents p < 0.001. […] No measure is printed with it.
# Here, we tested whether EC31 could reverse P-gp-mediated PTX resistance in the LCC6MDR xenograft model (Figure 5C). The treatment was given every other day 14 times (q2d x 14) from day 0 to day 26.
# The LCC6MDR tumor xenograft model was studied as it was previously. About 1 × 10^6 cells of LCC6MDR cells were inoculated subcutaneously (s.c.) into the rear flank of a female BALB/c nude mouse (4–6 weeks old). When a tumor of 200–250 mm^3 was formed, it was removed and cut into cubes of 1 mm^3 and was xenografted s.c. into the rear flank of another female BALB/c nude mouse. Treatments started when the tumor reached 100 mm^3. […] Tumor growth was measured with an electronic caliper on the injection day, and the tumor volume was calculated as reported previously.
# [1] = EC31 30 mg/kg i.p. + DOX 0.9 mg/kg i.v.
# [2] = group 3: EC31 30 mg/kg + PTX + EC31 30 mg/kg
structure (smiles),measurement,setting,value
COc1cc(OC)c2c(c1)O[C@H](c1ccc(OC)c(OC)c1)[C@H](OC(=O)c1ccc(F)c(NC(=O)c3cc(OC)c(OC)c(OC)c3)c1)C2 [EC31],median survival time,K562/P-gp leukemia; [1],37.0 days
same,prolongation of animal survival compared to DOX alone,K562/P-gp leukemia; [1],5 days
same,ILS% (increase in lifespan),K562/P-gp leukemia; EC31 30 mg/kg i.p. + DOX 0.9 mg/kg i.v. compared to DOX alone,15.6%
same,Doubling time,LCC6MDR xenograft; EC31 30 mg/kg i.p. (−1 h) + PTX 12 mg/kg i.v. + EC31 30 mg/kg i.p. (+5 h),15.0 days
same,Doubling time,LCC6MDR xenograft; EC31 60 mg/kg i.p. (−1 h) + PTX 12 mg/kg i.v.,12.4 days
same,reduction in tumor volume compared to PTX alone,LCC6MDR xenograft; [2],1.6 fold
same,reduction in tumor weight compared to PTX alone,LCC6MDR xenograft; [2],1.5 fold
same,reduction in tumor volume compared to PTX alone,LCC6MDR xenograft; group 4: EC31 60 mg/kg + PTX,1.4 fold
same,reduction in tumor weight compared to PTX alone,LCC6MDR xenograft; group 4: EC31 60 mg/kg + PTX,1.4 fold

# Source: paper PMC10002220, “In Vivo Reversal of P-Glycoprotein-Mediated Drug Resistance in a Breast Cancer Xenograft and in Leukemia Models Using a Novel, Potent, and Nontoxic Epicatechin EC31” (International Journal of Molecular Sciences, 2023)
